Measurements from the supplement of paper PMC10307832.

Tests used:
Assay in all cases: relative viability (nuclei count vs DMSO), 5 days (fraction); higher = more cells survive
AZD8055 + Phenformin = compound: COc1ccc(-c2ccc3c(N4CCOC[C@@H]4C)nc(N4CCOC[C@@H]4C)nc3n2)cc1CO [AZD8055] + N=C(N)NC(=N)NCCc1ccccc1 [Phenformin] (partner 250 µM)
How it was run: (§1)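 Lung cancer cell lines were pin-tool dosed in 1536-well plates on the day after seeding, with either a lone drug or a fixed anchor-drug dose plus five library-drug doses (not always all listed) in √10 steps. Nuclei were counted on 4× images after 5 days. Relative viability is the ratio of treated-well to vehicle-well nuclei counts, with each value a median of duplicate plates.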

AZD8055 + Olaparib = compound: COc1ccc(-c2ccc3c(N4CCOC[C@@H]4C)nc(N4CCOC[C@@H]4C)nc3n2)cc1CO [AZD8055] + O=C(c1cc(Cc2n[nH]c(=O)c3ccccc23)ccc1F)N1CCN(C(=O)C2CC2)CC1 [Olaparib] (partner 8 µM)
How it was run: as §1

AZD8055 + Trametinib = compound: COc1ccc(-c2ccc3c(N4CCOC[C@@H]4C)nc(N4CCOC[C@@H]4C)nc3n2)cc1CO [AZD8055] + CC(=O)Nc1cccc(-n2c(=O)n(C3CC3)c(=O)c3c(Nc4ccc(I)cc4F)n(C)c(=O)c(C)c32)c1 [Trametinib] (partner 0.02 µM)
How it was run: as §1

AZD8055 = compound: COc1ccc(-c2ccc3c(N4CCOC[C@@H]4C)nc(N4CCOC[C@@H]4C)nc3n2)cc1CO [AZD8055]
How it was run: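 Cells of lung cancer lines were placed in 1536-well plates and kept overnight at 37 °C. Pinning then delivered five library-drug doses (not always all listed), spaced by √10, onto plates anchored with vehicle, and the cells were left 5 days without changing medium. One step fixed, permeabilised and stained them with Hoechst, and MetaXpress counted nuclei in 4× images. Viability, as a median over plates, is treated-well nuclei divided by vehicle-well nuclei, with acceptance only at control CV below 25% and at least one doubling.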

Cell Line	relative viability (AZD8055 + Phenformin; first compound 0.01 µM)	relative viability (AZD8055 + Phenformin; first compound 0.03162 µM)	relative viability (AZD8055 + Phenformin; first compound 0.1 µM)	relative viability (AZD8055 + Phenformin; first compound 0.3162 µM)	relative viability (AZD8055 + Phenformin; first compound 1 µM)	relative viability (AZD8055 + Olaparib; first compound 0.01 µM)	relative viability (AZD8055 + Olaparib; first compound 0.03162 µM)	relative viability (AZD8055 + Olaparib; first compound 0.1 µM)	relative viability (AZD8055 + Olaparib; first compound 0.3162 µM)	relative viability (AZD8055 + Olaparib; first compound 1 µM)	relative viability (AZD8055 + Trametinib; first compound 0.01 µM)	relative viability (AZD8055 + Trametinib; first compound 0.03162 µM)	relative viability (AZD8055 + Trametinib; first compound 0.1 µM)	relative viability (AZD8055 + Trametinib; first compound 0.3162 µM)	relative viability (AZD8055 + Trametinib; first compound 1 µM)	relative viability (AZD8055; 0.01 µM)	relative viability (AZD8055; 0.03162 µM)	relative viability (AZD8055; 0.1 µM)	relative viability (AZD8055; 0.3162 µM)	relative viability (AZD8055; 1 µM)
NCI-H2126	0.488	0.503	0.438	0.349	0.379	0.916	0.833	0.709	0.493	0.363	0.544	0.469	0.424	0.294	0.359	0.973	0.926	0.743	0.515	0.418
HCC-44	0.216	0.197	0.132	0.158	0.128	1.03	1.04	0.957	0.847	0.861	0.994	1.16	0.907	0.802	0.731	0.99	1.03	0.844	0.552	0.473
NCI-H460	0.609	0.474	0.124	0.049	0.034	0.444	0.409	0.371	0.254	0.216	0.144	0.129	0.0855	0.0696	0.0537	1.13	0.995	0.798	0.416	0.264
SK-LU-1	0.526	0.436	0.288	0.247	0.226	0.442	0.412	0.345	0.305	0.254	0.579	0.447	0.358	0.284	0.3	1.05	0.82	0.628	0.388	0.366
NCI-H322M	0.726	0.704	0.662	0.501	0.502	0.806	0.847	0.734	0.731	0.474	0.522	0.467	0.486	0.481	0.398	0.933	0.968	0.741	0.64	0.601
EKVX	0.225	0.247	0.229	0.209	0.188	1	1.01	0.666	0.413	0.311	0.339	0.389	0.296	0.247	0.227	1.09	1.08	0.818	0.602	0.432
NCI-H1734	0.417	0.288	0.264	0.176	0.194	0.675	0.555	0.458	0.298	0.199	0.747	0.559	0.531	0.312	0.242	1.08	0.732	0.646	0.385	0.276
SW 900	0.568	0.343	0.489	0.368	0.169	0.812	0.952	0.719	0.48	0.502	0.897	0.783	0.622	0.374	0.505	0.827	0.783	0.704	0.513	0.236
NCI-H520	0.467	0.219	0.211	0.158	0.156	0.247	0.205	0.132	0.137	0.132	0.581	0.246	0.267	0.109	0.137	0.904	0.441	0.373	0.19	0.178
EPLC-272H	0.326	0.214	0.216	0.198	0.212	0.627	0.589	0.333	0.281	0.245	0.278	0.257	0.227	0.189	0.131	0.807	0.73	0.47	0.356	0.358
UMC-11	0.353	0.311	0.311	0.264	0.213	0.376	0.323	0.335	0.223	0.269	0.77	0.489	0.453	0.319	0.253	0.942	0.711	0.607	0.345	0.322
NCI-H1792	0.193	0.193	0.0875	0.0907	0.109	0.503	0.379	0.0968	0.0717	0.108	0.511	0.273	0.227	0.0933	0.0673	0.951	0.612	0.325	0.171	0.216
NCI-H1993	0.509	0.469	0.529	0.49	0.576	1.02	0.793	0.602	0.409	0.434	0.493	0.443	0.517	0.449	0.413	0.791	0.72	0.577	0.545	0.666
NCI-H596	0.777	0.685	0.608	0.407	0.375	0.752	0.615	0.459	0.452	0.514	0.704	0.676	0.577	0.411	0.404	0.953	0.762	0.683	0.469	0.406
NCI-H1793	0.405	0.272	0.196	0.203	0.207	0.528	0.329	0.221	0.203	0.213	0.449	0.274	0.279	0.183	0.22	0.669	0.443	0.287	0.212	0.222
NCI-H1395	0.447	0.396	0.333	0.394	0.374	0.479	0.412	0.407	0.358	0.432	0.977	0.793	0.712	0.514	0.544	0.869	0.648	0.739	0.488	0.427
HCC-827	0.426	0.395	0.416	0.349	0.288	0.651	0.523	0.494	0.281	0.172	0.499	0.445	0.364	0.264	0.258	1.13	1.1	1.11	0.876	0.768
ChaGo-K-1	0.508	0.467	0.494	0.407	0.374	0.457	0.48	0.456	0.437	0.395	1.03	0.884	0.858	0.66	0.628	1.02	0.998	0.952	0.858	0.722
NCI-H2228	0.307	0.205	0.188	0.133	0.212	0.763	0.432	0.217	0.187	0.228	0.507	0.314	0.211	0.159	0.199	1.29	0.757	0.378	0.201	0.213
NCI-H2170	0.438	0.437	0.471	0.407	0.341	0.67	0.572	0.37	0.198	0.183	0.957	0.864	0.614	0.222	0.159	1.01	0.881	0.735	0.365	0.345
EMC-BAC-2	0.5	0.42	0.36	0.283	0.258	0.391	0.465	0.395	0.272	0.244	0.87	0.818	0.733	0.363	0.434	0.992	0.784	0.698	0.356	0.336
NCI-H522	0.69	0.624	0.669	0.48	0.56	0.603	0.686	0.543	0.387	0.385	0.747	0.648	0.574	0.494	0.462	0.965	1	0.723	0.519	0.719
NCI-H23	0.785	0.778	0.713	0.465	0.403	0.248	0.213	0.279	0.166	0.184	0.277	0.314	0.33	0.227	0.22	1.09	0.804	0.662	0.371	0.373
RERF-LC-KJ	0.374	0.378	0.383	0.303	0.303	0.963	1.08	0.669	0.429	0.404	0.871	0.816	0.649	0.378	0.38	1.05	0.942	0.822	0.458	0.414
NCI-H358	0.362	0.387	0.294	0.151	0.121	0.563	0.594	0.543	0.202	0.12	0.144	0.144	0.116	0.106	0.116	1.03	1.15	0.855	0.323	0.263
LC-2-ad	0.549	0.564	0.538	0.336	0.362	0.748	0.778	0.759	0.835	0.704	0.989	0.917	0.828	0.907	0.715	1.04	1.04	0.922	0.621	0.529
